The record followed here is patent publication EP0429187A1, “Enhanced bioavailability adsorbates” (ELAN C[…].L.C., priority 1989, dated 1991).

A short description of data set [1]: Comparison of enhanced bioavailability DHEA adsorbate with micronised DHEA: plasma levels (AUC) of DHEA base and sulphate. The class given is in vivo. The following applies: reference AUC arbitrarily denoted as 100%, 500 mg oral every 8 hours over 24 hours, 9 healthy male human volunteers, read-out: F = absolute bioavailability (DHEA Base). As for the experimental part: In this study an enhanced bioavailability DHEA adsorbate powder of the type prepared in Example 2 was compared with standard micronised DHEA in capsule form. For the formulation in accordance with the invention (hereinafter referred to as 'test') the dose administered was 500 mg of DHEA as adsorbate in powder-sachet form. The standard micronised DHEA (hereinafter referred to as 'reference') was administered as 2 x 250 mg capsules. […] In the study, the test substance was compared in a group of 9 healthy male human volunteers against the reference substance. The dosage regime was 500 mg every 8 hours over a 24 hour period. Plasma samples were taken in each case at intervals up to and including 24 hours post initial dosing and the samples were assayed for DHEA (base and sulphate) levels. DHEA sulphate levels were measured because a substantial portion of the DHEA is converted to the sulphate form in vivo. For the reference substance, the area under the curve (AUC) value are arbitrarily denoted as 100%. The AUC value was then compared and assigned an absolute bioavailability value (%) using the 100% as baseline.

Data set [2] in a line: Mean urinary recoveries for DHEA base in the comparison study. As to conditions: human volunteers. The class given is in vivo.

The structures appear in SMILES notation.

For orientation: bioavailability means the share of a dose that reaches the circulation, judged against a reference dose that is usually intravenous. Consider `C[C@]12CC[C@H](O)CC1=CC[C@@H]1[C@@H]2CC[C@]2(C)C(=O)CC[C@@H]12` [REFERENCE, dehydroepiandrosterone], for which, in data set [1], the bioavailability came out at 100%. For the same compound, the “Mean Urinary Recoveries for DHEA Base” value amounted to 22.55 ± 8.50 mg/24 h in data set [2] (Day 0); 460.67 ± 179.87 mg/24 h in data set [2] (Day 1); 799.55 ± 191.90 mg/24 h in data set [2] (Day 2); 745.88 ± 179.92 mg/24 h in data set [2] (Day 3); 694.33 ± 162.07 mg/24 h in data set [2] (Day 4); 800.22 ± 156.19 mg/24 h in data set [2] (Day 5).
